Patent publication US20220356174A1, “PYRIDIN-2-ONE COMPOUNDS USEFUL AS SMARCA2 ANTAGONISTS” (Epizyme, Inc., priority 2018, published 2022)
Like-named read-outs stand apart in the source and are kept apart here.

What was measured:
[1] = target: FL-SMARCA4 (Homo sapiens, UniProt P51532); test: SMARCA4 ATPase activity assay (ADP-Glo, chicken mononucleosome substrate)
[2] = target: T1, FL-SMARCA2 (full-length human SMARCA2 isoform 1) (Homo sapiens, UniProt P51531); test: SMARCA2 ATPase activity assay (ADP-Glo, chicken mononucleosome substrate); format: biochemical; conditions: ATP 250 uM
T1 construct: FLAG tag (YKDDDDK) (C); made in house; host or cells: Sf21 insect cells (baculovirus, pFastBacI)
T1 sequence (P51531 with tags, fused parts or gaps): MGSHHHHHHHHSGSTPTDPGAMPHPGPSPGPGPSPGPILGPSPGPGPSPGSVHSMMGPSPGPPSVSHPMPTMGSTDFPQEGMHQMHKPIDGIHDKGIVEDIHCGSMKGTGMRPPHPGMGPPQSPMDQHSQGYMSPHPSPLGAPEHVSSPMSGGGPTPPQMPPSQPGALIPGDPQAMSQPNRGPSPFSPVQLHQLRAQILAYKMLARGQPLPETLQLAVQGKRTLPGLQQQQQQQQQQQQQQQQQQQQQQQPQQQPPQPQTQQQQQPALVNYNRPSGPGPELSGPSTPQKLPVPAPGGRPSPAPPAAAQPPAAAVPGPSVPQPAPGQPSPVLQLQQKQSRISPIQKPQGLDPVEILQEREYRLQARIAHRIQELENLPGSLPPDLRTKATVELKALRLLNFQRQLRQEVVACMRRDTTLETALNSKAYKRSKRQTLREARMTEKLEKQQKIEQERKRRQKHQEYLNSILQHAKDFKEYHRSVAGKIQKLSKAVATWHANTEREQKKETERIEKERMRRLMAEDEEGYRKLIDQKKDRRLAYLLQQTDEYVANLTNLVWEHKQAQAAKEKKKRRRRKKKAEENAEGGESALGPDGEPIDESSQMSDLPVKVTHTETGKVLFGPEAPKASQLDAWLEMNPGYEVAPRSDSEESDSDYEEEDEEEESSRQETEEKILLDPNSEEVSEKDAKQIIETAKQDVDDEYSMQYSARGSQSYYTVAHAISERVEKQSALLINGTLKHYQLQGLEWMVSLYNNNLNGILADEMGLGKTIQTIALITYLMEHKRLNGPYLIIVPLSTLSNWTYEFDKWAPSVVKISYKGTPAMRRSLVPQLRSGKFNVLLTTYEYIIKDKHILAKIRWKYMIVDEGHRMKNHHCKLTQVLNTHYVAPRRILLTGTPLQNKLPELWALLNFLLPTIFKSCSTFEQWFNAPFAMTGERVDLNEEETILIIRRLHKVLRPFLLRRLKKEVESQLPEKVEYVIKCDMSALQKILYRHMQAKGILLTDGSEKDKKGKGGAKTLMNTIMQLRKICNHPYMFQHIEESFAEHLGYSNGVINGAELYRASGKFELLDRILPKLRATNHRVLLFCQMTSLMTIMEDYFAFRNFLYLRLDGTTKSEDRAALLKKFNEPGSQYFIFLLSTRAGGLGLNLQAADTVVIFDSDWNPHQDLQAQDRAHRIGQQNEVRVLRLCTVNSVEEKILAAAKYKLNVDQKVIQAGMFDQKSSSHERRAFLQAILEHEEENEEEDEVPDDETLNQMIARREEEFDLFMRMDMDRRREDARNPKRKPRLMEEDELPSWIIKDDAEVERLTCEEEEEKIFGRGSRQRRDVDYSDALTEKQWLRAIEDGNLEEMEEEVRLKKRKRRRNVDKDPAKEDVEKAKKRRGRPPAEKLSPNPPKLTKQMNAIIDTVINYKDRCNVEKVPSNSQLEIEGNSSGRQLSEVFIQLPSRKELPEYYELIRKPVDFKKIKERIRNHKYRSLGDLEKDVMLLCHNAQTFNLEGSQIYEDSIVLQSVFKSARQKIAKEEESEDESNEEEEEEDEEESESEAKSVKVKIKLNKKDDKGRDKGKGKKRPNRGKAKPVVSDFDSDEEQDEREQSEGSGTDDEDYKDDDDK
Description: Molecular Biology: Full-length human SMARCA2 isoform 1 (P51531) transcript clone was amplified from a cDNA library incorporating an N-terminal HIS tag ([…]) fused directly to Ser2 of SMARCA2 and a C-FLAG tag (YKDDDDK) fused directly to Glu1590 of SMARCA2. The amplified gene was subcloned into pFastBacI (Life Technologies).
Protein Expression: Recombinant baculovirus were generated and protein over-expression was accomplished by infecting exponentially growing Sf21 insect cell culture at 1.24×10^6 cell/ml with an MOI of 0.1. Infections were carried out for 76 hours, harvested by centrifugation, and stored at −80° C. for purification.
Expressed full-length SMARCA2 was purified from cell paste by FLAG affinity chromatography followed by anion exchange chromatography. The protein was dialyzed into a storage buffer containing 25 mM HEPES, 300 mM KCl, 10% Glycerol, pH 7.9, 1 mM TCEP and 0.01% Tween-20. The purity of the protein was measured as 74% using micro-capillary based gel electrophoresis.

[3] = Table 3d.1, ATPase assay, enzyme 5 nM, chicken mononucleosome 10 nM, 30 min preincubation, read-out: FL-SMARCA2 IC>50
[4] = FL-SMARCA4 IC50, Table 3a.2, SMARCA4 5 nM, ATP 250 uM, mononucleosome 10 nM
[5] = Table 3a.1, SMARCA2 5 nM, mononucleosome 10 nM
[6] = FL-SMARCA4 IC>50, Table 3c.2, ATPase assay, enzyme 5 nM, ATP 250 uM, chicken mononucleosome 10 nM, 30 min preincubation
[7] = Table 3c.1, ATPase assay, enzyme 5 nM, chicken mononucleosome 10 nM, 30 min preincubation
[8] = FL-SMARCA4 IC50, Table 3.2, ATPase assay, enzyme 5 nM, ATP 250 uM, chicken mononucleosome 10 nM, 30 min preincubation
[9] = Table 3.1, ATPase assay, enzyme 5 nM, chicken mononucleosome 10 nM, 30 min preincubation

Chain of FL-SMARCA4 (P51532 whole entry, canonical isoform): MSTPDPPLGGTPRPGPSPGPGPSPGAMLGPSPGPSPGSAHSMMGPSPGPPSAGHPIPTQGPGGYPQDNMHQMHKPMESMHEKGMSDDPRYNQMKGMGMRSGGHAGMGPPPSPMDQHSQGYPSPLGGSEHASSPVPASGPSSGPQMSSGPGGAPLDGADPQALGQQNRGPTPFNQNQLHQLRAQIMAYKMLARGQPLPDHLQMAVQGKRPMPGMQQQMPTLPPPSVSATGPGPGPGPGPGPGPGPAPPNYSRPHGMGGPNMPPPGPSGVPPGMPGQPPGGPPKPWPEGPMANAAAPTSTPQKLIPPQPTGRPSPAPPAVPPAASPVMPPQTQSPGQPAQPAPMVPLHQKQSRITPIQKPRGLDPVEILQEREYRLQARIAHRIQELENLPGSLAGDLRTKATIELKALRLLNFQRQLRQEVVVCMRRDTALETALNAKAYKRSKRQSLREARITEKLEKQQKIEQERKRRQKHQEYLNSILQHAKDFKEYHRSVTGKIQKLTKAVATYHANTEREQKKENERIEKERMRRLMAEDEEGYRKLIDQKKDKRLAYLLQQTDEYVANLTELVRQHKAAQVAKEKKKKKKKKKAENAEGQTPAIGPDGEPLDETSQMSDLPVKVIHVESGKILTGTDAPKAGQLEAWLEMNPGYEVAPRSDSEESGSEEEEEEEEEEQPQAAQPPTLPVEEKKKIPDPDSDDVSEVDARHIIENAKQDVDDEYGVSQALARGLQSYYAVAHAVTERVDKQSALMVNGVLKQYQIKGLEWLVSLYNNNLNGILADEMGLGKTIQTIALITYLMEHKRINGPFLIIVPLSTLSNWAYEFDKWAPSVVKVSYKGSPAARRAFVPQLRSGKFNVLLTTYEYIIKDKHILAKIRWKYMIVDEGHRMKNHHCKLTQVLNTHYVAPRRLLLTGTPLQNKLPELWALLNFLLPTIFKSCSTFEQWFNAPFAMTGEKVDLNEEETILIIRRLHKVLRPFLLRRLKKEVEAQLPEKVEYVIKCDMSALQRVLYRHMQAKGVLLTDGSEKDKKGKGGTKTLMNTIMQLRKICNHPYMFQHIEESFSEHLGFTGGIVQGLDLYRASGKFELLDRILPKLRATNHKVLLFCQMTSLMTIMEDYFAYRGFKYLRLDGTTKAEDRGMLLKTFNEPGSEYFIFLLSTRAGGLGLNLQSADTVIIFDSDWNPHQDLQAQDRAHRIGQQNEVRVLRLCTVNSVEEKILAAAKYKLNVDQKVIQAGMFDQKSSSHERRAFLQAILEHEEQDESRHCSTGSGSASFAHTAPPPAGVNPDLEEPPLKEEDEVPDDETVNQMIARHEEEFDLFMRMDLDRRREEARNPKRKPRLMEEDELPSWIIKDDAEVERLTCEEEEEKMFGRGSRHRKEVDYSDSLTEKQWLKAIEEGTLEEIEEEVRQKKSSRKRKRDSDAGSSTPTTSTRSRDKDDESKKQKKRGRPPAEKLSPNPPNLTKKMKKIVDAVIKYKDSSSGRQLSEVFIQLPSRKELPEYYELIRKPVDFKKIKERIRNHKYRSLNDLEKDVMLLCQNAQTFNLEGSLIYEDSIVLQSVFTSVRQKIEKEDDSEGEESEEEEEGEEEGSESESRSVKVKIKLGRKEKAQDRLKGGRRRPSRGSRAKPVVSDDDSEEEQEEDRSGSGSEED

O=C(Nc1cc(F)c(=O)n(CC(F)F)c1)c1coc(Cl)n1 [Compound 37d]
IC50 ([1]; FL-SMARCA4 IC50): > 50 µM | IC50 [2, 3]: > 50 µM

CCn1cc(NC(=O)c2ccc3cn[nH]c3n2)ccc1=O [Compound 38a]
IC50 [1, 4]: > 50 µM | IC50 [2, 5]: > 50 µM

Cn1cncc1-c1cc(NC(=O)c2sc(C(F)(F)F)cc2Cl)cn(CC(F)F)c1=O [Compound 38c]
IC50 [1, 6]: > 50 µM | IC50 [2, 7]: > 50 µM

O=C(Nc1cc(F)c(=O)n(CC(F)F)c1)c1n[nH]c(Cl)n1 [Compound 38d]
IC50 ([1]; FL-SMARCA4 IC50): > 50 µM | IC50 [2, 3]: > 50 µM

CCn1cc(NC(=O)n2cc3ccccc3n2)ccc1=O [Compound 39a]
IC50 [1, 4]: > 50 µM | IC50 [2, 5]: > 50 µM

O=C(Nc1cc(F)c(=O)n(CC(F)F)c1)c1nc(Cl)c(Cl)[nH]1 [Compound 39d]
IC50 ([1]; FL-SMARCA4 IC50): > 50 µM | IC50 [2, 3]: > 50 µM

CCn1cc(NC(=O)c2ccc(Cl)s2)ccc1=O [Compound 40]
IC50 [1, 8]: 11.6 µM | IC50 [2, 9]: 2.63 µM

CCn1cc(NC(=O)c2sc3ccccc3c2C)ccc1=O [Compound 40a]
IC50 [1, 4]: > 50 µM | IC50 [2, 5]: > 50 µM

COc1cc(Cl)c(Cl)cc1C(=O)Nc1cc(F)c(=O)n(CC(F)F)c1 [Compound 40d]
IC50 ([1]; FL-SMARCA4 IC50): > 50 µM | IC50 [2, 3]: > 50 µM

O=C(Nc1ccc(=O)n(CC(F)(F)F)c1)c1nc2cc(F)c(Cl)cc2[nH]1 [Compound 41a]
IC50 [1, 4]: > 50 µM | IC50 [2, 5]: > 50 µM

COc1ncc(F)cc1C(=O)Nc1cc(F)c(=O)n(CC(F)F)c1 [Compound 41d]
IC50 ([1]; FL-SMARCA4 IC50): > 50 µM | IC50 [2, 3]: > 50 µM

CCn1cc(NC(=O)c2nc3cc(Cl)c(Cl)cc3[nH]2)ccc1=O [Compound 42a]
IC50 [1, 4]: > 50 µM | IC50 [2, 5]: 13.2 µM

COc1ncc(C(=O)Nc2cc(F)c(=O)n(CC(F)F)c2)cc1F [Compound 42d]
IC50 ([1]; FL-SMARCA4 IC50): > 50 µM | IC50 [2, 3]: 27.6 µM

O=C(Nc1ccc(=O)n(CC(F)(F)F)c1)c1nc2cc(Cl)c(Cl)cc2[nH]1 [Compound 43a]
IC50 [1, 4]: > 50 µM | IC50 [2, 5]: > 50 µM

N#Cc1nc(C(=O)Nc2cc(F)c(=O)n(CC(F)F)c2)co1 [Compound 43d]
IC50 ([1]; FL-SMARCA4 IC50): > 50 µM | IC50 [2, 3]: > 50 µM

CCn1cc(NC(=O)c2cc(Cl)cs2)ccc1=O [Compound 44]
IC50 [1, 8]: > 50 µM | IC50 [2, 9]: > 50 µM

O=C(Nc1ccc(=O)n(CC(F)(F)F)c1)c1nc2cc(F)c(Cl)cc2s1 [Compound 44a]
IC50 [1, 4]: > 50 µM | IC50 [2, 5]: 42.5 µM

COc1ccc(C#Cc2cc(C(=O)Nc3cc(F)c(=O)n(CC(F)F)c3)sc2Cl)cc1 [Compound 44c]
IC50 [1, 6]: 2.19 µM | IC50 [2, 7]: 1.04 µM

O=C(Nc1cc(F)c(=O)n(CC(F)F)c1)c1cc(Cl)on1 [Compound 44d]
IC50 ([1]; FL-SMARCA4 IC50): > 50 µM | IC50 [2, 3]: 29.5 µM

CCn1cc(NC(=O)c2cn3cc(Cl)c(F)cc3n2)ccc1=O [Compound 45a]
IC50 [1, 4]: > 50 µM | IC50 [2, 5]: > 50 µM

CN(C)CC#Cc1cc(NC(=O)c2cc(F)c(Cl)s2)cn(CC(F)F)c1=O [Compound 45d]
IC50 ([1]; FL-SMARCA4 IC50): > 50 µM | IC50 [2, 3]: > 50 µM

CCn1cc(NC(=O)c2nc3cc(F)c(Cl)cc3s2)ccc1=O [Compound 46a]
IC50 [1, 4]: 41.1 µM | IC50 [2, 5]: 42.7 µM

O=C(Nc1ccc(=O)n(CC(F)F)c1)c1sc(C(F)(F)F)cc1Cl [Compound 46c]
IC50 [1, 6]: > 50 µM | IC50 [2, 7]: > 50 µM

COc1c(C(=O)Nc2cc(F)c(=O)n(CC(F)F)c2)sc(Cl)c1Cl [Compound 46d]
IC50 ([1]; FL-SMARCA4 IC50): > 50 µM | IC50 [2, 3]: > 50 µM

CN1CCC(C(=O)Nc2cc(F)c(=O)n(CCF)c2)CC1=O (stereo not shown) [Compound 47a]
IC50 [1, 4]: > 50 µM | IC50 [2, 5]: > 50 µM

O=C(Nc1cc(F)c(=O)n(CC(F)F)c1)c1cc(C(O)C(F)(F)F)c(Cl)s1 (stereo not shown) [Compound 47d]
IC50 ([1]; FL-SMARCA4 IC50): > 50 µM | IC50 [2, 3]: 25.1 µM

CCn1cc(NC(=O)c2ccc(I)n2C)ccc1=O [Compound 48]
IC50 [1, 8]: > 50 µM | IC50 [2, 9]: 14.1 µM

CN1C(=O)CCCC1C(=O)Nc1cc(F)c(=O)n(CCF)c1 (stereo not shown) [Compound 48a]
IC50 [1, 4]: > 50 µM | IC50 [2, 5]: > 50 µM

Cn1cnc2cc(C(=O)Nc3cc(F)c(=O)n(CCF)c3)[nH]c2c1=O [Compound 48d]
IC50 ([1]; FL-SMARCA4 IC50): > 50 µM | IC50 [2, 3]: > 50 µM

CN1CC(C(=O)Nc2cc(F)c(=O)n(CCF)c2)CCC1=O (stereo not shown) [Compound 49a]
IC50 [1, 4]: > 50 µM | IC50 [2, 5]: > 50 µM

O=C(Nc1cc(F)c(=O)n(CC(F)F)c1)c1cc(C2COC2)c(Cl)s1 [Compound 49c]
IC50 [1, 6]: 16.8 µM | IC50 [2, 7]: 16.8 µM

O=C(Nc1cc(F)c(=O)n(CC(F)F)c1)c1sc(Cl)c(Cl)c1O [Compound 49d]
IC50 ([1]; FL-SMARCA4 IC50): > 50 µM | IC50 [2, 3]: > 50 µM
